One test deals with MIA PaCa-2 cells. The test can be described thus: Detection of cell proliferation inhibition, MIA PaCa-2 (Cell-titer Glo, 96 h). Type of test: cell-based. The procedure: MIA PaCa-2 cells were plated in a 96-well ultra-low adsorption plate at 600 cells and 160 µL/well. After overnight incubation, compound solutions with gradient concentrations were prepared, and 40 µL of DMSO solutions of the compounds to be tested were added to each well of cells respectively. Compound final concentrations were 10000, 2000, 400, 80, 16, 3.2, 0.64, 0.12, 0.025, 0 nM (all final concentrations of DMSO were 0.25%). Incubate at 37° C., 5% CO2 for 96 h. Add 50 µL of Cell-titer Glo working solution to each well, shake and mix well, incubate at room temperature for 10 min, read the Luminescence luminescence value with a multi-function microplate reader, and convert the luminescence value reading into inhibition percentage: Percent Inhibition = (Max-Reading)/(Max-Min)* 100. • “Max” is the DMSO control; • “Min” is the cell-free control.
Curve fitting was performed with Graphpad Prism software and IC50 values were obtained. See Table 1for IC50 data for the inhibition of MIA PaCa-2 cells by the compounds of the examples.

For another test, the system named is H358 cells. Put plainly: Detection of cell proliferation inhibition, H358 (Cell-titer Glo, 96 h). It counts as cell-based. As to the method:
H358 cells were plated in 96-well ultra-low adsorption plates at 2000 cells and 190 µL/well. After overnight incubation, compound solutions of gradient concentrations were prepared, and 10 µL of the DMSO solution of each concentration of the compound to be tested was added to the cells in each well. Compound final concentrations were 10000, 3333.3, 1111.1, 370.4, 123.5, 41.2, 13.7, 4.6, 1.5, 0 nM (all final concentrations of DMSO were 0.25%). Incubate at 37° C., 5% CO2 for 96 h. Add 50 µL of Cell-titer Glo working solution to each well, incubate at room temperature for 10 min after shaking and mixing, read the Luminescence luminescence value with a multi-function microplate reader, and convert the luminescence value reading into the inhibition percentage:
Percent Inhibition = (Max-Reading)/(Max-Min)* 100. • “Max” is the DMSO control, • “Min” is the cell-free control.
Curve fitting was performed with Graphpad Prism software and IC50 values were obtained. See Table 1 for IC50 data on H358 cell inhibition by example compounds.

[1] abbreviates: Homo sapiens, read-out: IC50 (nM) MIA PaCa-2.
[2] abbreviates: Homo sapiens, NCI-H358, read-out: IC50 (nM) H358.
[3] abbreviates: Homo sapiens, read-out: IC50 MIA PaCa-2.

Like-named read-outs stand apart in the source and are kept apart here.

By IC50 is commonly meant the concentration that gives 50% inhibition.

For “10-((S)-4-(Acryloyl-2-Methylpiperazin-1-yl)-8-Fluoro-13-(2-Isopropyl-4-Methyl) Pyridin-3-yl)-2,3-Dihydrobenzo [4,5] Oxodipine [3,2-h] Quinolin-12(13H)One [Example 7]”, the half-maximal inhibitory concentration (IC50) was 70 nM in the test with MIA PaCa-2 cells (read-out: IC50 (nM) MIA PaCa-2) and 137 nM in the test with H358 cells (read-out: IC50 (nM) H358).
`C=CC(=O)N1CCN(c2nc(=O)n(-c3c(C)ccnc3C(C)C)c3c4c(c(F)cc23)-c2ccccc2CO4)[C@@H](C)C1` [Example 1]: the IC50 in the test with MIA PaCa-2 cells (read-out: IC50 (nM) MIA PaCa-2) turned out to be 90.2 nM; in the test with H358 cells (read-out: IC50 (nM) H358), 491 nM.
The like results for `C=CC(=O)N1CCN(c2nc(=O)n(-c3c(C)ccnc3C(C)C)c3c(F)c4c(cc23)OCc2ccccc2-4)[C@@H](C)C1` [Example 2] were, in that order, 122 nM and 295 nM.
For `C=CC(=O)N1CCN(c2nc(=O)n(-c3c(C)ccnc3C(C)C)c3c4c(c(F)cc23)-c2c(F)cccc2CO4)[C@@H](C)C1` [Example 3], the IC50 in the test on MIA PaCa-2 cells (read-out: IC50 (nM) MIA PaCa-2) was less than 50 nM; in the test with H358 cells (read-out: IC50 (nM) H358), 78 nM.
Take `C=CC(=O)N1CCN(c2nc(=O)n(-c3c(C)ccnc3C(C)C)c3c(F)c4c(cc23)OCc2cccc(F)c2-4)[C@@H](C)C1` [Example 4, (S)-8-(Acryloyl-2-Methylpiperazin-1-yl)-1,12-Difluoro-11-(2-Isopropyl-4-Methylpyridin-3-yl)-5H-Isochromene[3,4-g] Quinazolin-10(11H)-One]: the IC50 in the test on MIA PaCa-2 cells (read-out: IC50 (nM) MIA PaCa-2) stood at 63 nM; with H358 cells (read-out: IC50 (nM) H358) it was 191 nM.
With `C=CC(=O)N1CCN(c2nc(=O)n(-c3c(C)ccnc3C(C)C)c3c4c(c(F)cc23)-c2c(Cl)cccc2CO4)[C@@H](C)C1` [Example 5, (S)-1-(Acryloyl-2-Methylpiperazin-1-yl)-10-Chloro-11-Fluoro-4-(2-Isopropyl-4-Methylpyridin-3-yl)-4H-Isochromene[4,3-h] Quinazolin-3(6H)-One], the IC50 in the test on MIA PaCa-2 cells (read-out: IC50 (nM) MIA PaCa-2) is less than 50 nM; in the test with H358 cells (read-out: IC50 (nM) H358), 115 nM.
For `C=CC(=O)N1CCN(c2nc(=O)n(-c3c(C)ccnc3C(C)C)c3c(F)c4c(cc23)OCc2cccc(Cl)c2-4)[C@@H](C)C1` [Example 6, (S)-8-(Acryloyl-2-Methylpiperazin-1-yl)-1-Chloro-12-Fluoro-11-(2-Isopropyl-4-Methylpyridin-3-yl)-5 H-Isochromene[3,4-g] Quinazolin-10(11 H)-one], the IC50 with MIA PaCa-2 cells (read-out: IC50 (nM) MIA PaCa-2) turned out to be 272 nM; in the test with H358 cells (read-out: IC50 (nM) H358) it was 496 nM.
In the case of `C=CC(=O)N1CCN(c2nc(=O)n(-c3c(C)ccnc3C(C)C)c3c(F)c4c(cc23)OCCc2ccccc2-4)[C@@H](C)C1` [Example 8], the values for the IC50 in the test with MIA PaCa-2 cells (setting [1]) and with H358 cells (setting [2]) were 85 nM and 155 nM, respectively.
Take `C=CC(=O)N1CCN(c2nc(=O)n(-c3c(C)ccnc3C(C)C)c3c4c(c(F)cc23)-c2c(O)cccc2CO4)[C@@H](C)C1` [Example 9, (S)(Acryloyl-2-methylpiperazinyl)-11-fluoro-10-hydroxy-4-(2-isopropyl-4-methylpyridin-3-yl) -4 H-isochromene[4,3-h] quinazolin-3(6 H)-one]: the IC50 was more than 10000 nM in the test with MIA PaCa-2 cells (setting [3]) and more than 10000 nM with H358 cells (Homo sapiens, NCI-H358, read-out: IC50 H358).
For the compound `C=CC(=O)N1CCN(c2nc(=O)n(-c3c(C)ccnc3C(C)C)c3c(F)c4c(cc23)OCc2cccc(O)c2-4)[C@@H](C)C1` [Example 10, (S)-8-(Acryloyl-2-Methylpiperazin-1-yl)-12-Fluoro-1-Hydroxy-1l-(2-Isopropyl-4-Methylpyridin-3-yl)-5H-Isochromene[3,4-g]Quinazolin-10(11H)-One], the IC50 in the test on MIA PaCa-2 cells (setting [1]) stood at 3110 nM; in the test with H358 cells (setting [2]), 3870 nM.
`C=CC(=O)N1CCN(c2nc(=O)n(-c3c(C)ccnc3C(C)C)c3c4c(c(F)cc23)-c2c(cccc2OC)CO4)[C@@H](C)C1` [Example 11, (S)-1-(Acryloyl-2-Methylpiperazin-1-yl)-l1-Fluoro-10-Methoxy-4-(2-Isopropyl-4-Methylpyridin-3-yl)-4H-Isochromene[4,3-h] Quinazolin-3(6H)-one]: the IC50 was 964 nM in the test on MIA PaCa-2 cells (setting [1]) and 2040 nM in the test with H358 cells (setting [2]).
Consider `C=CC(=O)N1CCN(c2nc(=O)n(-c3c(C)ccnc3C(C)C)c3c(F)c4c(cc23)OCc2cccc(OC)c2-4)[C@@H](C)C1` [Example 12, (S)-8-(Acryloyl-2-Methylpiperazin-1-yl)-12-Fluoro-1-Methoxy-11-(2-Isopropyl-4-Methylpyridin-3-yl)-5H-Isochromene[3,4-g] Quinazolin-10(11H)-One], for which the IC50 in the test on MIA PaCa-2 cells (setting [3]) was more than 2000 nM; with H358 cells (setting [2]), 3180 nM.
Regarding `C=CC(=O)N1CCN(c2nc(=O)n(-c3c(C)ccnc3C(C)C)c3c4c(c(Cl)cc23)-c2c(F)cccc2CO4)[C@@H](C)C1` [Example 13, (S)-1-(4-Acryloyl-2-Methylpiperazin-1-yl)-11-Chloro-10-Fluoro-4-(2-Isopropyl-4-Methylpyridin-3-yl)-4H-Isochromene[4,3-h] Quinazolin-3(6H)-One], the IC50 in the test on MIA PaCa-2 cells (read-out: IC50 (nM) MIA PaCa-2) and with H358 cells (read-out: IC50 (nM) H358) was less than 50 nM throughout.
Regarding `C=CC(=O)N1CCN(c2nc(=O)n(-c3c(C)ccnc3C(C)C)c3c4c(c(C=C)cc23)-c2c(F)cccc2CO4)[C@@H](C)C1` [Example 14, (S)-1-(4-Acryloyl-2-Methylpiperazin-1-yl)-10-Fluoro-4-(2-Isopropyl-4-Methylpyridine-3-yl)-11-Vinyl-4H-Isochromene[4,3-h] Quinazolin-3(6H)-One], the IC50 with MIA PaCa-2 cells (read-out: IC50 (nM) MIA PaCa-2) and in the test with H358 cells (read-out: IC50 (nM) H358) was less than 50 nM in each case.
Turning to `C=CC(=O)N1CCN(c2nc(=O)n(-c3c(C)ccnc3C(C)C)c3c4c(c(C)cc23)-c2c(F)cccc2CO4)[C@@H](C)C1` [Example 15, (S)-1-(4-Acryloyl-2-Methylpiperazin-1-yl)-10-Fluoro-4-(2-Isopropyl-4-Methylpyridine-3-yl)-11-Methyl-4H-Isochromene[4,3-h] Quinazolin-3(6H)-One], the IC50 in the test with MIA PaCa-2 cells (read-out: IC50 (nM) MIA PaCa-2) and with H358 cells (read-out: IC50 (nM) H358) was less than 50 nM in each case.
Turning to `C=CC(=O)N1CCN(c2nc(=O)n(-c3c(C)ccnc3C(C)C)c3c4c(c(C(F)(F)F)cc23)-c2c(F)cccc2CO4)[C@@H](C)C1` [Example 16, (S)-1-(4-Acryloyl-2-Methylpiperazin-1-yl)-10-Fluoro-4-(2-Isopropyl-4-Methylpyridine-3-yl)-11-(Trifluoromethyl)-4H-Isochromene[4,3-h] Quinazolin-3(6H)-One], the IC50 in the test on MIA PaCa-2 cells (read-out: IC50 (nM) MIA PaCa-2) was less than 50 nM; with H358 cells (read-out: IC50 (nM) H358), 80.6 nM.
On to `C=CC(=O)N1CCN(c2nc(=O)n(-c3c(C)ccnc3C(C)C)c3c(F)c4c(cc23)OCc2ccc(F)c(F)c2-4)[C@@H](C)C1` [Example 17, (S)-8-(4-Acryloyl-2-Methylpiperazin-1-yl)-1,2,12-Trifluoro-11-(2-Isopropyl-4 -Methylpyridin-3-yl)-5H Isochromene[3,4-g] Quinazolin-10(11H)-One], for which the IC50 in the test on MIA PaCa-2 cells (setting [1]) was 317 nM; with H358 cells (setting [2]) it was 274 nM.
In the case of `C=CC(=O)N1CCN(c2nc(=O)n(-c3c(C)ccnc3C(C)C)c3c4c(c(Cl)cc23)-c2c(ccc(F)c2F)CO4)[C@@H](C)C1` [Example 18, (S)-1-(4-Acryloyl-2-Methylpiperazin-1-yl)-11-Chloro-9,10-Difluoro-4-(2-Isopropyl-4-Methylpyridin-3-yl)-4H-Isochromene[4,3-h] Quinazolin-3(6H)-One], the concentration for half-maximal inhibition (IC50) with MIA PaCa-2 cells (setting [1]) and in the test with H358 cells (setting [2]) was less than 50 nM each time.
For the compound `C=CC(=O)N1CCN(c2nc(=O)n(-c3c(C)ccnc3C(C)C)c3c4c(c(Cl)cc23)-c2c(F)cccc2CCO4)[C@@H](C)C1` [Example 19, 10-((S)-4-Acryloyl-2-Methylpiperazin-1-yl)-8-Chloro-7-Fluoro-13-(2-Isopropyl-4-Methylpyridin-3-yl)-2,3-Dihydrobenzo[4,5]oxa[3,2-h]Quinazo1in-12(13H)-One], the IC50 in the test with MIA PaCa-2 cells (setting [1]) and in the test on H358 cells (setting [2]) was less than 50 nM in each case.
As for `C=CC(=O)N1CCN(c2nc(=O)n(-c3c(C)ccnc3C(C)C)c3c4c(c(Cl)cc23)-c2cccnc2CO4)[C@@H](C)C1` [Example 20, (S)-7-(4-Acryloyl-2-Methylpiperazin-1-yl)-5-Chloro-10-(2-Isopropyl-4-Methylpyridine-3-yl)-10H Pyridin[3’,2’:4,5] Pyrano[3,2-h]Quinazolin-9(12H)-One], the concentration for half-maximal inhibition (IC50) in the test with MIA PaCa-2 cells (setting [1]) is 64.2 nM; in the test on H358 cells (setting [2]), 62.6 nM.
`C=CC(=O)N1CCN(c2nc(=O)n(-c3c(C)ccnc3C(C)C)c3c4c(c(F)cc23)-c2c(ccc3ccccc23)CO4)[C@@H](C)C1` [Example 21, (S)-1-(4-Acryloyl-2-Methylpiperazin-1-yl)-13-Fluoro-4-(2-Isopropyl-4-Methylpyridine-3-yl)-4H-Benzo[5,6] Isochromene[4,3-h]Quinazolin-3(6H)-one]: the figures for the concentration for half-maximal inhibition (IC50) in the test with MIA PaCa-2 cells (setting [1]) and in the test on H358 cells (setting [2]) were 1700 nM and 690 nM, respectively.

(Values after patent US20230203055A1, “FUSED RING COMPOUND AND APPLICATION THEREOF IN MEDICINE” (Betta Pharmaceuticals Co., LTD, priority 2020, published 2023).)
